# Measured values taken from US20260285853A1, “COMPOUNDS AND METHODS FOR MODULATING SPLICING” (REMIX THERAPEUTICS INC., priority 2023, published 2026).
# Read-outs that look alike come from different tables or passages of the source.
# Experiments:
# Assay type in all cases: cell-based
# HTT mRNA [1] = test: Splicing RT-qPCR assay (THP), Table 2A
# MYB mRNA [2] = test: Splicing RT-qPCR assay (THP), Table 2A
# HTT mRNA [3] = test: Gene panel canonical junction qPCR assay, decrease in CJ mRNA, Table 3
# Procedure: (§1) Compounds described herein were used to modulate RNA transcript abundance in cells. The expression of a target mRNA was measured by detecting the formation of an exon-exon junction in the canonical transcript (CJ). A compound mediated exon-inclusion event was detected by observing an increase in formation of a new junction with an alternative exon (AJ). Real-time qPCR assays were used to detect these splicing switches and interrogate the potency of various compounds towards different target genes. A high-throughput real time quantitative PCR (RT-qPCR) assay was developed to measure these two isoforms of the mRNA (CJ and AJ) for exemplary genes, such as HTT, SMN2, and MYB, together with a control housekeeping gene, GAPDH or GUSB or PPIA, used for normalization. Briefly, the A673 or K562 cell line was treated with various compounds described herein (e.g., compounds of Formula (I)). After treatment, the levels of the HTT, MYB, or SMN2 mRNA targets were determined from each sample of cell lysate by cDNA synthesis followed by qPCR.
# (§2) The A673 cell line was cultured in DMEM with 10% FBS. Cells were diluted with full growth media and plated in a 96-well plate (15,000 cells in 100 ul media per well). The plate was incubated at 37° C. with 5% CO2 for 24 hours to allow cells to adhere. An 11-point 3-fold serial dilution of the compounds was made in DMSO then diluted in media in an intermediate plate. Compounds were transferred from the intermediate plate to the cell plate with the top dose at a final concentration of 10 uM in the well. Final DMSO concentration was kept at or below 0.25%. The cell plate was returned to the incubator at 37° C. with 5% CO2 for an additional 24 hours.
# (§3) The K562 cell line was cultured in IMDM with 10% FBS. For K562, cells were diluted with full growth media and plated in either a 96-well plate (50,000 cells in 50 uL media per well) or a 384-well plate (8,000-40,000 cells in 45 uL media per well). An 11-point 3-fold serial dilution of the compounds were made in DMSO then diluted in media in an intermediate plate. Compound was transferred from the intermediate plate to the cell plate with the top dose at a final concentration of 10 uM in the well. Final DMSO concentration was kept at or below 0.25%. Final volume was 100 uL for 96-well plate and 50 uL for 384-well plate. The cell plate was then placed in an incubator at 37° C. with 5% CO2 for 24 hours.
# (§4) The data analysis was performed by first determining the ΔCt vs the housekeeper gene. This ΔCt was then normalized against the DMSO control (ΔΔCt) and converted to RQ (relative quantification) using the 2^(−ΔΔCt) equation. The RQ were then converted to a percentage response by arbitrarily setting an assay window of 3.5 and 4.0 ΔCt for HTT-CJ and MYB-CJ respectively and an assay window of 9 and 3 ΔCt for HTT-AJ and MYB-AJ in 96 well format (50,000 K562 cells/well and 15,000 A673 cells per well) and an assay window of 3 and 4 ΔCt for HTT-CJ and MYB-CJ respectively and an assay window of 5 and 3 ΔCt for HTT-AJ and MYB-AJ respectively in 384 well format (8,000 K562 cells/well example). […] The percentage response was then fitted to the 4 parametric logistic equation to evaluate the concentration dependence of compound treatment. The increase in AJ mRNA is reported as AC50 (compound concentration having 50% response in AJ increase) while the decrease in CJ mRNA levels is reported as IC50 (compound concentration having 50% response in CJ decrease).
# (§5) Additional studies were carried out for a larger panel of genes using the protocol provided above. The junction between flanking upstream and downstream exons was used to design canonical junction qPCR assays. At least one of the forward primer, reverse primer or the CY5-labeled 5′ nuclease probe (with 3′ quencher such as ZEN/Iowa Black FQ) was designed to overlap with the exon junction to capture the CJ mRNA transcript. […]
# MYB mRNA [4] = test: as above
# Procedure: as §1, §2, §3, §4, §5
# [5] = system: SH-SY5Y (human neuroblastoma) cells; test: Cell viability, Cell Titer Glo 2.0 assay; conditions: read-out: Viability SHSY5Y.3 GI50
# Procedure: Compounds described herein were screened for toxicity in K562 (human chronic myelogenous leukemia) and SH-SY5Y (human neuroblastoma) cells using a Cell Titer Glo 2.0 assay.
# • Promega CellTiter-Glo® 2.0 Cell Viability Assay (cat #G9241) • Corning 384-well TC-treated microplates (cat #3570)
# Cells were plated at 500 cells/well (K562 cells) in 45 μL of IMDM supplemented with 10% FBS in a 384-well opaque plate. Wells containing only medium were used as a blank control. Test compounds (e.g., compounds of Formula (I) or (II) were first serially diluted in DMSO then diluted 1:100 with IMDM+10% FBS. The final concentration of DMSO was 0.1% in each well. The cells were incubated for 72 hours at 37° C. and 5% CO2 before assaying with Cell Titer Glo 2.0 reagent.
# [6] = Table 2A (THP), AJ mRNA increase, read-out: HTT AJ (increase in alternative junction mRNA, AC50)
# [7] = Table 2A (THP), CJ mRNA decrease, read-out: HTT CJ (decrease in canonical junction mRNA, IC50)
# [8] = Table 2A (THP), AJ mRNA increase, read-out: MYB AJ (increase in alternative junction mRNA, AC50)
# [9] = Table 2A (THP), CJ mRNA decrease, read-out: MYB CJ (decrease in canonical junction mRNA, IC50)
# [10] = decrease in canonical junction (CJ) mRNA, gene panel qPCR, Table 3
# [11] = Table 2A, THP, HTT alternative junction (AJ) mRNA, read-out: HTT AJ (AC50, increase in alternative junction mRNA)
# [12] = Table 2A, THP, HTT canonical junction (CJ) mRNA, read-out: HTT CJ (IC50, decrease in canonical junction mRNA)
# [13] = Table 2A, THP, MYB alternative junction (AJ) mRNA, read-out: MYB AJ (AC50, increase in alternative junction mRNA)
# [14] = Table 2A, THP, MYB canonical junction (CJ) mRNA, read-out: MYB CJ (IC50, decrease in canonical junction mRNA)
# [15] = decrease in CJ mRNA levels, canonical junction qPCR, gene panel
IC50 (HTT mRNA [1]; [7]) [nM],IC50 (MYB mRNA [2]; [9]) [nM],IC50 (HTT mRNA [3]; [10]) [nM],IC50 (MYB mRNA [4]; [10]) [nM],GI50 [5] [nM],IC50 (HTT mRNA [1]; [12]) [nM],IC50 (MYB mRNA [2]; [14]) [nM],IC50 (HTT mRNA [3]; [15]) [nM],IC50 (MYB mRNA [4]; [15]) [nM],Structure (SMILES),AC50 (HTT mRNA [1]; [6]) [nM],AC50 (MYB mRNA [2]; [8]) [nM],AC50 (HTT mRNA [1]; [11]) [nM],AC50 (MYB mRNA [2]; [13]) [nM]
> 10000,100 to 1000,> 10000,100 to 1000,1000 to 10000,,,,,"COc1cc2nn(C)cc2cc1NC(=O)c1c(Cl)cc(N2CCC(NC3CC3)CC2)c2cn(C)nc12 [Compound 436, 6-chloro-4-[4-(cyclopropylamino)-1-piperidyl]-N-(6-methoxy-2-methyl-indazol-5-yl)-2-methyl-indazole-7-carboxamide]",> 10000,100 to 1000,,
,,,,1000 to 10000,1000 to 10000,1000 to 10000,1000 to 10000,1000 to 10000,COc1nc2c(C(=O)Nc3cc(CNS(C)(=O)=O)c4nc(C)cn4c3)ccc(N3CCC(NC4CC4)CC3)c2s1 [Compound 855],,,1000 to 10000,1000 to 10000
> 10000,> 10000,> 10000,> 10000,1000 to 10000,,,,,"COc1cc2nn(C)cc2cc1NC(=O)c1c(N)cc(N2CCC(NC3CC3)CC2)c2cn(C)nc12 [Compound 450, 6-amino-4-[4-(cyclopropylamino)-1-piperidyl]-N-(6-methoxy-2-methyl-indazol-5-yl)-2-methyl-indazole-7-carboxamide]",> 10000,> 10000,,
,,,,1000 to 10000,> 10000,1000 to 10000,> 10000,1000 to 10000,COc1cc2c(N3CCC(NC4CC4)CC3)ccc(C(=O)Nc3cn4cc(C)nc(CNS(C)(=O)=O)c4n3)n2n1 [Compound 806],,,> 10000,1000 to 10000
,,,,1000 to 10000,> 10000,1000 to 10000,> 10000,1000 to 10000,"Cc1cn2cc(NC(=O)c3ccc(N4CCC(NC5CC5)CC4)c4cc(CF)nn34)nc2c(C)n1 [Compound 617, 4-[4-(cyclopropylamino)-1-piperidyl]-N-(6,8-dimethylimidazo[1,2-a]pyrazin-2-yl)-2-(fluoromethyl)-pyrazolo[1,5-a]pyridine-7-carboxamide]",,,> 10000,100 to 1000
,,,,1000 to 10000,1000 to 10000,1000 to 10000,1000 to 10000,1000 to 10000,"CCNC1CCN(c2ccc(C(=O)Nc3cc(CNS(C)(=O)=O)c4nn(C)cc4c3)c3nn(C)cc23)CC1 [Compound 798, 4-[4-(ethylamino)-1-piperidyl]-N-[7-(methanesulfonamidomethyl)-2-methyl-indazol-5-yl]-2-methyl-indazole-7-carboxamide]",,,1000 to 10000,1000 to 10000
100 to 1000,100 to 1000,100 to 1000,100 to 1000,1000 to 10000,,,,,COc1cc2nn(C)cc2cc1NC(=O)c1ccc(N2CCNC(C)C2)c2cn(C)nc12 (stereo not shown) [Compound 568],1000 to 10000,100 to 1000,,
,,,,< 100,100 to 1000,< 100,100 to 1000,< 100,COc1nc2c(C(=O)Nc3cc(Cl)c4nn(C)cc4c3)ccc(N3C[C@H](C)N[C@@H](C)C3)c2s1 [Compound 785],,,100 to 1000,< 100
> 10000,> 10000,> 10000,> 10000,> 10000,,,,,"Cc1cn2cc(NC(=O)c3ccc(N4CCC(NC5CC5)CC4)c4cn(C)nc34)nc2c(-c2cnn[nH]2)n1 [Compound 579, 4-(4-(cyclopropylamino)piper-idin-1-yl)-2-methyl-N-(6-methyl-8-(1H-1,2,3-triazol-5-yl)-imidazo[1,2-a]pyrazin-2-yl)-2H-indazole-7-carbox-amide 2,2,2-trifluoroacetate]",> 10000,> 10000,,
,,,,1000 to 10000,1000 to 10000,1000 to 10000,1000 to 10000,1000 to 10000,"Cc1cn2cc(NC(=O)c3ccc(N4CCC(NC5CC5)CC4)c4cn(C)nc34)nc2c(Cn2cccn2)n1 [Compound 773, 4-[4-(cyclopropylamino)-1-piperidyl]-2-methyl-N-[6-methyl-8-(pyrazol-1-ylmethyl)imidazo[1,2-a]pyrazin-2-yl]indazole-7-carboxamide]",,,1000 to 10000,1000 to 10000
